The results in this text go back to patent US20230149409A1, “TREATMENT OF HUMAN PAPILLOMAVIRUS-ASSOCIATED CANCERS BY PD-L1 INHIBITORS” (priority 2021, published 2023).

Holding throughout (format): cell-based
Assay [1] addresses T1, PD-L1 on CD14+ cells in human whole blood (Homo sapiens, UniProt Q9NZQ7).
T1 construct: Cells were gated on CD14+ (BD Biosciences) and PD-L1 expression determined by mean fluorescence intensity; host or cells: CD14+ cells in normal human whole blood, stimulated with human interferon gamma
The assay can be described thus: PD-L1 whole blood internalization assay. Conditions: 1 ng/mL interferon γ, CD14+ gated, 24 hour. The method, boiled down: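 Normal human whole blood exposed to compound concentration range plus 1 ng/mL IFN-γ for 18–20 h at 37 °C, then stained for PD-L1 and CD14, red cells lysed/fixed. PD-L1 MFI measured on CD14+ gated cells by flow cytometry; IC50 from percent inhibition versus log concentration fit.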

The test system of assay [2] is PD-L1 (U2OS/PD-L1 cells, Jurkat-PD-1-SHP cells). As to the kind of experiment: Src Homology Region 2 Domain-containing Phosphatase (SHP) assay. Conditions: Homo sapiens; U2OS/PD-L1 + Jurkat-PD-1-SHP cells, 2 hours. The procedure, abridged: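 U2OS/PD-L1 cells and Jurkat-PD-1-SHP cells (5,000 each per well) were co-incubated with compound in RPMI1640/1% FBS for 2 h at 37° C, with final DMSO 0.05%. PathHunter chemiluminescence was read after 1 h at room temperature. IC50 was fitted from percent of DMSO-control activity against log concentration.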

Assay [3] relates to PD-L1 (PD-L1 aAPC/CHO-K1 cells, Jurkat-PD-1-NFAT effector cells). The assay can be described thus: Nuclear Factor of Activated T-cells (NFAT) assay. Conditions: Cricetulus griseus; PD-L1 aAPC/CHO-K1 + Jurkat-PD-1-NFAT cells, 24 hours. The method, boiled down: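 PD-L1 aAPC/CHO-K1 cells (8000/well) were treated with compound (0.4% DMSO, 2 µM final), then co-cultured with Jurkat-PD-1-NFAT effector cells for 24 hours at 37° C. NFAT luciferase luminescence was normalized to DMSO as fold induction. Maximum induction is relative to the control compound's top FOI; EC50 is from curve fitting.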

Some results are limits rather than exact numbers.

T1 sequence (Q9NZQ7 19-290): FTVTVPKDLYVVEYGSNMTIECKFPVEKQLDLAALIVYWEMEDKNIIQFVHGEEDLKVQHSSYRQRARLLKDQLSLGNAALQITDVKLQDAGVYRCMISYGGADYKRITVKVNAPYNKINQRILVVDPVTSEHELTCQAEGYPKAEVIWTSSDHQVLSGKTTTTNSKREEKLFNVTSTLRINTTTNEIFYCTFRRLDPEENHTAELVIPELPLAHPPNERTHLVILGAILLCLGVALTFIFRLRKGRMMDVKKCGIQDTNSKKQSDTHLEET

In the case of `Cc1c(Nc2nccc3cc(CN4CC[C@@H](O)C4)cnc23)cccc1-c1cccc(-c2nc3cc(CN4CC[C@@H](C(=O)O)C4)cc(C#N)c3o2)c1C` [Compound 1, (R)-1-((7-cyano-2-(3′-(3-(((R)-3-hydroxypyrrolidin-1-yl)methyl)-1,7-naphthyridin-8-ylamino)-2,2′-dimethylbiphenyl-3-yl)benzo[d]oxazol-5-yl)methyl)pyrrolidine-3-carboxylic acid], the values for the 50% inhibitory concentration (IC50) in assay [1] and in assay [2] were less than 500 nM and less than 10 nM, respectively. Moreover, in assay [3], the EC50 was less than 100 nM.
Taken in the same sequence, the figures for `Cn1c(C(=O)Nc2cccc(-c3cccc(NC(=O)c4nc5c(n4C)CCN(CCC46CCC(C(=O)O)(CC4)C6)C5)c3Cl)c2Cl)nc2c1CCN(CCC13CCC(C(=O)O)(CC1)C3)C2` [Compound 30, 4,4′-(((((2,2′-dichloro-[1,1′-bipheiryl]-3,3′-diyl)bis(azanediyl))bis(carbonyl))bis(1-methyl-1,4,6,7-tetrahydro-5H-imidazo[4,5-c]pyridine-2,5-diyl))bis(ethane-2,1-diyl))bis(bicyclo[2.2.1]heptane-1-carboxylic acid)] were less than 100 nM, less than 10 nM and less than 100 nM.
